One series concerns corn plant. Description: Spot-on crop injury test on corn leaf. It counts as in vivo. Conditions: corn at 2.5-leaf stage, 2 micro liter droplet spotted on 2nd leaf; glufosinate-ammonium 40,000 ng/plant, PPO inhibitor none or 20 ng/plant (weight ratio 1/2,000); visually estimated 3 days after treatment, % of total area of treated leaf. An excerpt: 3 days after the spot-on treatments, the injured area of the treated leaf was visually estimated as a percentage on the total area of the treated leaf.

The subject of a further series is soybean plant. Description: Spot-on crop injury test on soybean leaf. It counts as in vivo. The conditions noted are these: soybean at 2 trifoliate leaf stage, 2 micro liter droplet spotted on 2nd trifoliate leaf; glufosinate-ammonium 400,000 ng/plant, PPO inhibitor none or 0.2 ng/plant (weight ratio 1/2,000,000); visually estimated 6 days after treatment, % of total area of treated leaf. An excerpt: One droplet having 2 micro liter of a commercial formulation of glufosinate-ammonium (manufactured by Bayer Cropscience KK under the trade name of Basta) having 200,000 ppm (200 g/L) of glufosinate-ammonium was spotted on the 2nd trifoliate leaf of a soybean plant at the stage of 2 trifoliate leaf.
6 days after the spot-on treatments, the injured area of the treated leaf was visually estimated as a percentage on the total area of the treated leaf.

Each structure is given as a SMILES string.

As for `CP(=O)(O)CCC(N)C(=O)O` (centres unmarked) [Glufosinate-ammonium, glufosinate-ammonium], the Injured leaf area in the series with corn plant is recorded as 60%; with soybean plant, 70%.

These data come from US10555528B1, “Herbicidal composition and method for controlling weeds” (SUMITOMO CHEMICAL COMPANY, LIMITED, priority 2019, dated 2020).
